The test system of assay [1] is Saccharomyces cerevisiae. Description: Antiproliferative activity against yeast YPH278 assessed as reduction in cell viability after 24 hrs. It counts as functional.
In assay [2] the test system is Saccharomyces cerevisiae. Description: Inhibition of chromosome segregation in yeast YPH278 at 5 uM. It counts as functional, organism-based.
Assay [3] has as its system Saccharomyces cerevisiae. Description: Inhibition of chromosome segregation in yeast YPH278 at 15 uM. It counts as functional, organism-based.

Consider 43 compounds from ChEMBL document CHEMBL1155955, “Structure-activity relationship studies of the chromosome segregation inhibitor, Incentrom A” (2008).

In brackets after ≈: the same amount, converted by molar mass. Activity calls are given as the source filed them. The rule behind the calls is not given here. A value given as a limit tells only on which side of the number the result lay.

As for `c1ccc(CCN2CCN(CCCCn3c4ccccc4c4ccccc43)CC2)cc1`, the MIC in the assay with Saccharomyces cerevisiae [1] amounted to 9 µM (≈ 3.7 µg/mL).
In the case of `O=C(CN1CCN(C/C=C/c2ccccc2)CC1)Cn1c2ccccc2c2ccccc21`, in the assay on Saccharomyces cerevisiae [1], the minimum inhibitory concentration (MIC) is above 45 µM.
Regarding `[N-]=[N+]=Nc1ccc(/C=C/CN2CCN(CCCCn3c4ccccc4c4ccccc43)CC2)cc1`, the result with Saccharomyces cerevisiae [2] was Active. Besides, the MIC in the assay with Saccharomyces cerevisiae [1] came to 5 µM (≈ 2.32 µg/mL).
For `O[C@H](CN1CCN(C/C=C/c2ccccc2)CC1)Cn1c2ccccc2c2ccccc21`, the MIC in the assay on Saccharomyces cerevisiae [1] came to 14 µM (≈ 5.96 µg/mL).
Turning to `c1ccc2cc(CN3CCN(CCCCn4c5ccccc5c5ccccc54)CC3)ccc2c1`, in the assay with Saccharomyces cerevisiae [1], the MIC came to 30 µM (≈ 13.4 µg/mL).
Turning to `O=c1c2ccccc2n(CCCCN2CCN(C/C=C/c3ccccc3)CC2)c2ccccc12`, the MIC with Saccharomyces cerevisiae [1] is above 45 µM.
For the compound `C(=C\c1ccccc1)/CN1CCN(CCCCCCn2c3ccccc3c3ccccc32)CC1`, the MIC with Saccharomyces cerevisiae [1] was determined as 7 µM (≈ 3.16 µg/mL).
On the same count and under the same terms, for `CC(=O)OC(CN1CCN(C/C=C/c2ccccc2)CC1)Cn1c2ccccc2c2ccccc21` (stereo unspecified) the value was 18 µM (≈ 8.42 µg/mL); for `[N-]=[N+]=NC(CN1CCN(C/C=C/c2ccccc2)CC1)Cn1c2ccccc2c2ccccc21` (stereo unspecified), above 45 µM; for `OC(Cc1ccccc1)CN1CCN(CCCCn2c3ccccc3c3ccccc32)CC1` (stereo unspecified), 12 µM (≈ 5.3 µg/mL).
The same measure, in the same setting: for `OC(CN1CCN(C/C=C/c2ccccc2)CC1)Cn1ccc2ccccc21` (stereo unspecified) the value was above 45 µM; for `OC(CN1CCN(C/C=C/c2ccccc2)CC1)CN(c1ccccc1)c1ccccc1` (stereo unspecified), 45 µM (≈ 19.2 µg/mL).
Consider `Oc1ccc(CCCN2CCN(CCCCn3c4ccccc4c4ccccc43)CC2)cc1`, for which the MIC in the assay on Saccharomyces cerevisiae [1] is 28 µM (≈ 12.4 µg/mL).
For the compound `OC(CN1CCN(C/C=C/c2ccccc2)CC1)Cn1c2c(c3ccccc31)CCCC2` (stereo unspecified), the minimum inhibitory concentration (MIC) in the assay on Saccharomyces cerevisiae [1] worked out at 25 µM (≈ 10.7 µg/mL).
For `OC(CN1CCN(C/C=C/c2ccccc2)CC1)Cn1c2ccccc2c2ccccc21` (stereo unspecified), in the assay with Saccharomyces cerevisiae [3], the result was Active. For the same compound, in the assay on Saccharomyces cerevisiae [1], the MIC is 15 µM (≈ 6.38 µg/mL).
Turning to `O=C(OC(CN1CCN(C/C=C/c2ccccc2)CC1)Cn1c2ccccc2c2ccccc21)c1ccccc1` (stereo unspecified), in the assay on Saccharomyces cerevisiae [1], the MIC is above 45 µM.
Consider `Oc1cccc(/C=C/CN2CCN(CCCCn3c4ccccc4c4ccccc43)CC2)c1`, for which the MIC in the assay on Saccharomyces cerevisiae [1] came out at 27 µM (≈ 11.9 µg/mL).
Take `CC(=O)Nc1ccc2c(c1)c1ccccc1n2CCCCN1CCN(C/C=C/c2ccccc2)CC1`: the MIC in the assay on Saccharomyces cerevisiae [1] was above 45 µM.
As for `C(=C\c1ccccc1)/CN1CCN(CCCCn2c3c(c4ccccc42)CCCC3)CC1`, the MIC in the assay on Saccharomyces cerevisiae [1] was determined as 10 µM (≈ 4.28 µg/mL).
As for `O[C@@H](CN1CCN(C/C=C/c2ccccc2)CC1)Cn1c2ccccc2c2ccccc21`, in the assay on Saccharomyces cerevisiae [1], the MIC turned out to be 15 µM (≈ 6.38 µg/mL).
With `COc1cccc(/C=C/CN2CCN(CCCCn3c4ccccc4c4ccccc43)CC2)c1`, in the assay on Saccharomyces cerevisiae [1], the MIC is 12 µM (≈ 5.44 µg/mL).
For the compound `C(=C\c1ccccc1)/CN1CCN(CCCCn2c3ccccc3c3ccccc32)CC1`, the result in the assay on Saccharomyces cerevisiae [2] was Active. Further, in the assay on Saccharomyces cerevisiae [1], the MIC was found to be 5 µM (≈ 2.12 µg/mL).
Turning to `O=[N+]([O-])c1ccc2c(c1)c1ccccc1n2CCCCN1CCN(C/C=C/c2ccccc2)CC1`, the MIC in the assay with Saccharomyces cerevisiae [1] amounted to 5 µM (≈ 2.34 µg/mL).
In the case of `COc1ccc(CCCN2CCN(CCCCn3c4ccccc4c4ccccc43)CC2)cc1`, the MIC in the assay on Saccharomyces cerevisiae [1] worked out at 8 µM (≈ 3.65 µg/mL).
As to `CCCCCCOc1ccc(CCCN2CCN(CCCCn3c4ccccc4c4ccccc43)CC2)cc1`, the MIC in the assay with Saccharomyces cerevisiae [1] was above 45 µM.
Turning to `c1ccc(C2OC2CN2CCN(CCCCn3c4ccccc4c4ccccc43)CC2)cc1` (stereo unspecified), the MIC in the assay with Saccharomyces cerevisiae [1] is 7 µM (≈ 3.08 µg/mL).
Same read-out and setting: the figure for `OC(CN1CCN(Cc2ccccc2)CC1)Cn1c2ccccc2c2ccccc21` (stereo unspecified) is above 45 µM; for `CCCCCCCCOc1ccc(CCCN2CCN(CCCCn3c4ccccc4c4ccccc43)CC2)cc1` it is above 45 µM; for `OC(CN1CCN(C/C=C/c2ccccc2)CC1)CN1c2ccccc2Oc2ccccc21` (stereo unspecified) it is 7 µM (≈ 3.09 µg/mL).
As to `c1ccc(CCCCCN2CCN(CCCCn3c4ccccc4c4ccccc43)CC2)cc1`, the MIC in the assay with Saccharomyces cerevisiae [1] was 4 µM (≈ 1.81 µg/mL).
Consider `CC(=O)OC(Cc1ccccc1)CN1CCN(CCCCn2c3ccccc3c3ccccc32)CC1` (stereo unspecified), for which the minimal inhibitory concentration (MIC) in the assay on Saccharomyces cerevisiae [1] was 18 µM (≈ 8.71 µg/mL).
The same measure, in the same setting: for `c1ccc(COc2ccc(CCCN3CCN(CCCCn4c5ccccc5c5ccccc54)CC3)cc2)cc1` the value was above 45 µM.
On to `OC(CN1CCN(CCCc2ccccc2)CC1)Cn1c2ccccc2c2ccccc21` (stereo unspecified), for which the minimal inhibitory concentration (MIC) in the assay with Saccharomyces cerevisiae [1] worked out at 20 µM (≈ 8.55 µg/mL).
For `O=C(OC(Cc1ccccc1)CN1CCN(CCCCn2c3ccccc3c3ccccc32)CC1)c1ccccc1` (stereo unspecified), in the assay on Saccharomyces cerevisiae [1], the MIC is above 45 µM.
As to `O=C(Nc1ccc2c(c1)c1ccccc1n2CCCCN1CCN(C/C=C/c2ccccc2)CC1)c1ccccc1`, the minimum inhibitory concentration (MIC) in the assay on Saccharomyces cerevisiae [1] is above 45 µM.
Same read-out and setting: for `Nc1ccc(CCCN2CCN(CCCCn3c4ccccc4c4ccccc43)CC2)cc1` the value was 16 µM (≈ 7.05 µg/mL); for `C(=C\c1ccccc1)/CN1CCN(CCCn2c3ccccc3c3ccccc32)CC1`, 12 µM (≈ 4.91 µg/mL); for `C(=C\c1ccccc1)/CN1CCN(CCCCCCCCn2c3ccccc3c3ccccc32)CC1`, 44 µM (≈ 21.1 µg/mL).
On to `c1ccc(CCCCN2CCN(CCCCn3c4ccccc4c4ccccc43)CC2)cc1`, for which the MIC in the assay with Saccharomyces cerevisiae [1] was determined as 5 µM (≈ 2.2 µg/mL).
Take `C(=C\c1ccccc1)/CN1CCN(CCCCCn2c3ccccc3c3ccccc32)CC1`: the MIC with Saccharomyces cerevisiae [1] was 6 µM (≈ 2.63 µg/mL).
On the same count and under the same terms, for `CN(C)c1ccc(/C=C/CN2CCN(CCCCn3c4ccccc4c4ccccc43)CC2)cc1` the value was 42 µM (≈ 19.6 µg/mL); for `c1ccc2c(c1)c1ccccc1n2CCCCN1CCN(CCCC2CCCCC2)CC1`, 5 µM (≈ 2.16 µg/mL); for `Nc1ccc(/C=C/CN2CCN(CCCCn3c4ccccc4c4ccccc43)CC2)cc1`, 15 µM (≈ 6.58 µg/mL).
